Measurements published in patent US9267165B2, “Assays and kits for detecting protein binding” (DiscoveRx Corporation, priority 2002, dated 2016).
Read-outs that look alike come from different tables or passages of the source.

Assays:
[1] = biological target: JNK2 (Homo sapiens, UniProt P45984); settings: IC50, Ki or Kd from the literature; cited from earlier work
[2] = biological target: EGFR (Homo sapiens, UniProt P00533); settings: IC50, Ki or Kd from the literature; cited from earlier work
[3] = biological target: ERBB2 (Homo sapiens, UniProt P04626); settings: IC50, Ki or Kd from the literature; cited from earlier work
[4] = biological target: T1, p38α (Homo sapiens, UniProt Q16539); assay: Competition binding assay, phage-displayed kinase vs immobilized ATP-site ligand (SB202190); design: the coding region for p38α was cloned into the phage genome in-frame with the gene encoding the major T7 capsid protein; made in house; host or cells: T7 phage grown in E. coli (BLT 5615 in the illustrative protocol); lysate used directly
[5] = biological target: T1, p38α; settings: IC50, Ki or Kd from the literature; cited from earlier work

T1 sequence (Q16539 whole entry): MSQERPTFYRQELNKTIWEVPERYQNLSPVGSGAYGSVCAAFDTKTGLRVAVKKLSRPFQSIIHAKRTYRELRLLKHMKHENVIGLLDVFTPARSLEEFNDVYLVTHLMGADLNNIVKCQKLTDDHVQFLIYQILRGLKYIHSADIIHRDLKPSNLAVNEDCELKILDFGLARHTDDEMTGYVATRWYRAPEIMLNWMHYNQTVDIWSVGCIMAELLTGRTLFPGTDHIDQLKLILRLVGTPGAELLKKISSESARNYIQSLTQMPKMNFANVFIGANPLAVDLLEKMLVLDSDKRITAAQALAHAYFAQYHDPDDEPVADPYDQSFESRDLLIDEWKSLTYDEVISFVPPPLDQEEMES
Sequence of EGFR (P00533 25-1210, species assumed): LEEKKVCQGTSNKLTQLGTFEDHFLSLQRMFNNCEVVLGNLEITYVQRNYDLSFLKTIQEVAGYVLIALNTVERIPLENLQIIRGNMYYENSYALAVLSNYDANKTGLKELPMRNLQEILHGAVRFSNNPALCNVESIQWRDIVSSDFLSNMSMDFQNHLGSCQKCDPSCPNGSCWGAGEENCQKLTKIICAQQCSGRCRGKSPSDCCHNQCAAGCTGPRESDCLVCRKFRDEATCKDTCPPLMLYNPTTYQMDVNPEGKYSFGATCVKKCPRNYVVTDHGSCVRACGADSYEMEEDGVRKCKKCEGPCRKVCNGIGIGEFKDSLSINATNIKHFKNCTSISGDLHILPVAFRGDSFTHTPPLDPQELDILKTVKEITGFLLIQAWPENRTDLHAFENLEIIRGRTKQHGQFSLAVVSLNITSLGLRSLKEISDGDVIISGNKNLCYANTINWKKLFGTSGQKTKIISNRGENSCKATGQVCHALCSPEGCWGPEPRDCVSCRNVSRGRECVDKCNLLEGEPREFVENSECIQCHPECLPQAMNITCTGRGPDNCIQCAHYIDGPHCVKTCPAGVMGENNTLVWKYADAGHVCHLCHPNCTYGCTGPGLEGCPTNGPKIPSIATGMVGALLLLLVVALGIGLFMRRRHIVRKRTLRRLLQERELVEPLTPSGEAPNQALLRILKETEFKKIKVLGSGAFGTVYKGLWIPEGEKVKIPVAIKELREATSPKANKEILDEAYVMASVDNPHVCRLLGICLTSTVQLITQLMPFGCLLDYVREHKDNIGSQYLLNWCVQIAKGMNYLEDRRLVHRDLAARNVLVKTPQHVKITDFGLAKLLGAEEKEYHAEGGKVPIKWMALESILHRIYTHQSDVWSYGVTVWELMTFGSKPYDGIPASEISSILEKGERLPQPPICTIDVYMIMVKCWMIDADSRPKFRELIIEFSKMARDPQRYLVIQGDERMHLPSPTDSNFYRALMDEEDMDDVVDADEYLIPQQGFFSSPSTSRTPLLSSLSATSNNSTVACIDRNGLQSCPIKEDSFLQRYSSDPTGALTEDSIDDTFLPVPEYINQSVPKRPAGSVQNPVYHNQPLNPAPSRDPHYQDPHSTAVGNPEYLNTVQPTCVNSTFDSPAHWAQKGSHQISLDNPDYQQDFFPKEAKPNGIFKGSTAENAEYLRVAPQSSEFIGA
Sequence of JNK2 (P45984 whole entry, species assumed): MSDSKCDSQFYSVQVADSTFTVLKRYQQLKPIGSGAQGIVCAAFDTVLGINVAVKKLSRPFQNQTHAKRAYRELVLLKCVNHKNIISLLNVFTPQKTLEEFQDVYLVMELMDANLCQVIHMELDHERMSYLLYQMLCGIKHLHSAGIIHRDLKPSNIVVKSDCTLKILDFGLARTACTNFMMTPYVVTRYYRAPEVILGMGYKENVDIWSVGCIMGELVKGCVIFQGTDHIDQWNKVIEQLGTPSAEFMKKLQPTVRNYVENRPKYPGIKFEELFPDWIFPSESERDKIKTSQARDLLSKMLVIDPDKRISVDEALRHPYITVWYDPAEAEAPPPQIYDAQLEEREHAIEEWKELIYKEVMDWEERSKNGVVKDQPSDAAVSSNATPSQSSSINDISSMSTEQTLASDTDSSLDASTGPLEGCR
Sequence of ERBB2 (P04626 23-1255, species assumed): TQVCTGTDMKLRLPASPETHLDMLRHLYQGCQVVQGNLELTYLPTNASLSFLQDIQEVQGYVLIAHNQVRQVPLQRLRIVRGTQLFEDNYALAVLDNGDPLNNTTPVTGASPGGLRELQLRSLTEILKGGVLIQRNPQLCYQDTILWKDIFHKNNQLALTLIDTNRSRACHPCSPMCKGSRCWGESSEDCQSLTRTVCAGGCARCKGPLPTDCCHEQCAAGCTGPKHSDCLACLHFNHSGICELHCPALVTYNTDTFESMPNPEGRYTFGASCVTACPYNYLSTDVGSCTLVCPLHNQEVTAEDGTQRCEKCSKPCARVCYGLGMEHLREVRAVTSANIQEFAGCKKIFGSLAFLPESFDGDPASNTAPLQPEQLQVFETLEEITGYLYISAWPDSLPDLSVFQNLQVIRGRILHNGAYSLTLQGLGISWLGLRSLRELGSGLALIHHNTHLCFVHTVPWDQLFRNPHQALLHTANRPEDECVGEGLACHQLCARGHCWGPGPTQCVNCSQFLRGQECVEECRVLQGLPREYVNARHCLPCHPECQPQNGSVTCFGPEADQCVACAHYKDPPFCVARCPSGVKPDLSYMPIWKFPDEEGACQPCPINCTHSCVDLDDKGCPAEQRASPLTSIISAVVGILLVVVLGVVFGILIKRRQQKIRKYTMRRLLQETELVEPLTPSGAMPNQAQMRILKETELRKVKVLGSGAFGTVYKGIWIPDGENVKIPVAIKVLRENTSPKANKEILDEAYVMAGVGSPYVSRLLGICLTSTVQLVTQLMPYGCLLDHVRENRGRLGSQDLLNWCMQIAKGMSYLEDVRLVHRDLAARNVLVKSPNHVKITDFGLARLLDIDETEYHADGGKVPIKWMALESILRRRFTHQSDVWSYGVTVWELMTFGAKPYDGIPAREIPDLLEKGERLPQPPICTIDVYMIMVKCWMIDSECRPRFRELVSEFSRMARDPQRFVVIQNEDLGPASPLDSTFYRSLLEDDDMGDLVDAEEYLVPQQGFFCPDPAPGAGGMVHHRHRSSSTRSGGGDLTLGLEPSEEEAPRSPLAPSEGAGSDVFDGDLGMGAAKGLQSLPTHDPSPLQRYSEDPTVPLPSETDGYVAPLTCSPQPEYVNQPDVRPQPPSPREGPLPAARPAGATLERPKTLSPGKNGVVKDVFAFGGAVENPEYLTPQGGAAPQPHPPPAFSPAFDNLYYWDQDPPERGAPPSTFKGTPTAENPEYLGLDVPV

In the case of `O=C1c2ccccc2-c2n[nH]c3cccc1c23` [CC-401], the Published [1] is given as 110 (Z. Han et al., J. Clin. Invest. 108, 73 (2001)) nM.
In the case of `CS(=O)(=O)CCNCc1ccc(-c2ccc3c(Nc4ccc(OCc5cccc(F)c5)c(Cl)c4)ncnc3c2)o1` [GW-2016], the Published [2] is listed as 11 (D. W. Rusnak et al., Mol. Cancer Ther. 1, 85 (2001)) nM and the Published [3] is listed as 9.2 (D. W. Rusnak et al., Mol. Cancer Ther. 1, 85 (2001)) nM.
In the case of `Oc1ccc(-c2nc(-c3ccncc3)c(-c3ccc(F)cc3)[nH]2)cc1` [SB202190], the “binding (association) kinetics” value ([4]; p38, known and also observed in the competition assays) is given as “fast” and the Published [5] is given as 37 (B. Frantz et at., Biochemistry 37, 13846 (1998)). nM.
For `CCc1nc(-c2ccc(OC)cc2)[nH]c1-c1ccncc1` [SB202474], the “decrease of the amount of phage-displayed p38 bound to the solid support” value [4] was “neither SB202474 nor purvalanol A had a significant effect”.
For `CC(C)[C@H](CO)Nc1nc(Nc2cccc(Cl)c2)c2ncn(C(C)C)c2n1` [purvalanol A], the “decrease of the amount of phage-displayed p38 bound to the solid support” value ([4]; competition with immobilized SB202190, FIG. 1B) was “neither SB202474 nor purvalanol A had a significant effect”.
